Activity calls are given as the source filed them. No cut-off for these calls is given here.
Assays:
spleen = test: Cytoprotective activity against 137Cs gamma-radiation-induced apoptosis in C57/BL6 mouse spleen cells preincubated for 1 hr followed by irradiation measured after 6 to 24 hrs by annexin V/FITC-propidium iodide staining-based FACS analysis; type: functional, cell-based
[1] = Anticlonogenic activity against ionizing radiation/chemotherapeutic agent-treated clonogenic tumor cells (unknown origin) preincubated for 12 to 48 hrs followed by growth medium addition without compound measured after 7 to 14 days by crystal violet staining-based assay relative to control; type: functional

NC(=O)c1ccc2[nH]c(-c3ccc(Sc4ccc(O)cc4)cc3)nc2c1
Activity (spleen): Active

Cc1ccc(Sc2ccc(-c3nc4cc(C(N)=O)ccc4[nH]3)cn2)cc1
Activity (spleen): Active

NC(=O)c1ccc2[nH]c(-c3ccc(Oc4ccc(Cl)cc4)cc3)nc2c1
Activity [1]: Active | Activity (spleen): Active

COc1ccc(Sc2ccc(-c3nc4cc(C(N)=O)ccc4[nH]3)cc2)cc1
Activity (spleen): Active

COc1cccc(Sc2ccc(-c3nc4cc(C(N)=O)ccc4[nH]3)cc2)c1
Activity (spleen): Active

NC(=O)c1ccc2[nH]c(-c3ccc(Oc4ccc(I)cc4)cc3)nc2c1
Activity (spleen): Active

NC(=O)c1ccc2[nH]c(-c3ccc(Oc4ccc5c(c4)OCO5)cc3)nc2c1
Activity (spleen): Active

NC(=O)c1ccc2[nH]c(-c3ccc(Sc4ccc(F)c(Cl)c4)cc3)nc2c1
Activity (spleen): Active

COc1cc(Oc2ccc(-c3nc4cc(C(N)=O)ccc4[nH]3)cc2)ccc1Br
Activity (spleen): Active

NC(=O)c1ccc2[nH]c(-c3ccc(Oc4ccc5ccccc5c4)cc3)nc2c1
Activity (spleen): Active

NC(=O)c1ccc2[nH]c(-c3ccc(Sc4ccc(Cl)cc4)nc3)nc2c1
Activity (spleen): Active

NC(=O)c1ccc2[nH]c(-c3ccc(Oc4ccc(Br)cc4)cc3)nc2c1
Activity (spleen): Active

NC(=O)c1ccc2[nH]c(-c3ccc(Oc4ccc(Br)c(O)c4)cc3)nc2c1
Activity (spleen): Active
